This series concerns cmlc2:GFP transgenic fish embryos. As to the kind of experiment: Morpholino and microRNA injections in zebrafish embryos. It is filed as in vivo. The settings on record: injection at one-cell stage. The procedure: Morpholino and microRNA Injections in Zebrafish Embryos. Morpholinos (Gene Tools) were dissolved in water at a 2 mM stock concentration and diluted to a 2 ng/nl working concentration in PBS/phenol red solution. Embryo injections were performed by injecting ˜1 nl morpholino solution at the 1-cell stage using a FemtoJet (Eppendorf). For microRNA mimic injection, a miR-99/100 equimolar mixture at 2 ng/nl in PBS was employed. Morphants were evaluated at 24, 48 and 72 h in a StereoLumar stereoscope (Zeiss).

As for “Fntb morpholino: translation-blocking morpholino 5′-GCGCCTCTTCCATGATGAGCTCTCA-3′ (SEQ ID NO: 1128) (all phosphorodiamidate morpholino (PMO))”, the ventricle size result was “significantly reduced ventricle size”.
As to “Smarca5 morpholino: translation-blocking morpholino 5′-CTTCTTCCCGCTGCTGCTCCATGCT-3′ (SEQ ID NO: 1129) (all phosphorodiamidate morpholino (PMO))”, the ventricle size entry is “significantly reduced ventricle size”.

Source of the values: patent US9220721B2, “Methods for heart regeneration” (The Salk Institute for Biological Studies, priority 2012, dated 2015).
